Consider 8 compounds from patent publication US20070243182A1, “Use of Carboxypeptidease G for Combating Antifolate Toxicity” (Protherics Medicines Development Limited, priority 2004, published 2007).

Where two headings read alike, the source gives them in different places.

For data set [1], the target named is T1, CPG2 (Pseudomonas sp., UniProt P06621). Particulars: substrate of CPG2; Sherwood et al (1985); cited from earlier work.
For data set [2], the target named is T1, CPG2. It is filed as biochemical, Pseudomonas sp. strain RS-16. How it is done:
A stock solution of 10 mM Tomudex in 100 mM Tris-HCl pH7.3 was prepared and used to prepare a series of dilutions from 0-100 μM in 100 mM Tris-HCl pH 7.3. 990 μl of each dilution was placed in a quartz cuvette and pre-warmed to 37° C. 10 μl of enzyme solution was added to initiate the reaction and the progress of the reaction was followed by measuring the rate of change in absorbance at 356 nm.
Measurement of the rate of reaction at a range of substrate concentrations, from 1-100 μM allows the Km and kcat for the enzyme to be determined using appropriate computer software such as “Enzfitter” (Biosoft; Cambridge, UK).
A stock solution of 10 mM LY309887 in 100 mM Tris-HCl pH7.3 is prepared and used to prepare a series of dilutions from 0-100 μM in 100 mM Tris-HCl pH 7.3. 990 μl of each dilution is placed in a quartz cuvette and pre-warned to 37° C. 10 μl of enzyme solution is added to initiate the reaction and the progress of the reaction is followed by measuring the rate of change in absorbance at a suitable wavelength. […] Measurement of the rate of reaction at a range of substrate concentrations, from 1-100 μM allows the Km and kcat for the enzyme to be determined using Enzfitter computer software.
A stock solution of 10 mM AG2034 in 100 mM Tris-HCl pH7.3 is prepared and used to prepare a series of dilutions from 0-100 μM in 100 mM Tris-HCl pH 7.3. 990 μl of each dilution is placed in a quartz cuvette and pre-warmed to 37° C. 10 μl of enzyme solution is added to initiate the reaction and the progress of the reaction is followed by measuring the rate of change in absorbance at a suitable wavelength. […] Measurement of the rate of reaction at a range of substrate concentrations, from 1-100 μM allows the Km and kcat for the enzyme to be determined using Enzfitter computer software.
A stock solution of 10 mM AG2037 in 100 mM Tris-HCl pH7.3 is prepared and used to prepare a series of dilutions from 0-100 μM in 100 mM Tris-HCl pH 7.3. 990 μl of each dilution is placed in a quartz cuvette and pre-warmed to 37° C. 10 μl of enzyme solution is added to initiate the reaction and the progress of the reaction is followed by measuring the rate of change in absorbance at a suitable wavelength. […] Measurement of the rate of reaction at a range of substrate concentrations, from 1-100 μM allows the Km and kcat for the enzyme to be determined using Enzfitter computer software.

For data set [3] the following is noted: 3-weekly schedule, paediatric population; cited from earlier work.
Another data set concerns bone marrow cells. Conditions: MTX 100 μM, leucovorin calcium 1,000 μM; cited from earlier work.
Data set [4] in a line: Rescue of Tomudex toxicity in a patient by administration of CPG2 (with or without thymidine). It counts as in vivo. Particulars: thymidine given together with CPG2 to a patient with toxic plasma levels of Tomudex.
Description: A patient who has been administered Tomudex and has toxic plasma levels of Tomudex is administered a dose of 50 Units per kg body weight of CPG2 by intravenous injection over a period of about 5 minutes.
A patient who has been administered Tomudex and has toxic plasma levels of Tomudex is administered a dose of 50 Units per kg body weight of CPG2 by intravenous injection over a period of about 5 minutes and is also administered thymidine.
Setting [5] is: substrate of CPG2, spectrophotometric assay, 100 mM Tris-HCl pH 7.3, 37° C., 356 nm.
The mark [6] stands for this setting: example in present tense, no values given.

T1 sequence (P06621 23-415): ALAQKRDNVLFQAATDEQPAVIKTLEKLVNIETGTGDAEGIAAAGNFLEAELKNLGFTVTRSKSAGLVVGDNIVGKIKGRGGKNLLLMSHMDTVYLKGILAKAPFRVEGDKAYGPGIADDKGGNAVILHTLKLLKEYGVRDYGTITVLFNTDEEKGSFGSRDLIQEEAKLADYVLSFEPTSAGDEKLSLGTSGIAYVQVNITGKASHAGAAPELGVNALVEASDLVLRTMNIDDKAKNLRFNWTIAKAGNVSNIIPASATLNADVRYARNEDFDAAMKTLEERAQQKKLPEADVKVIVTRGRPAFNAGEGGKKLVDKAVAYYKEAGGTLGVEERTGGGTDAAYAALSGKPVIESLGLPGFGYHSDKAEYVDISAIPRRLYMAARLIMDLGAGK

In general, Km refers to the concentration of substrate that gives half-maximal velocity. Regarding `CN1c2c(nc(N)[nH]c2=O)NCC1CNc1ccc(C(=O)N[C@@H](CCC(=O)O)C(=O)O)cc1` (some centres unmarked) [5-methyl THF], the Michaelis-Menten constant (Km) on CPG2 [1] was 34 µM. Take `Nc1nc2ncc(CNc3ccc(C(=O)N[C@@H](CCC(=O)O)C(=O)O)cc3)nc2c(=O)[nH]1` [folate]: the Km at CPG2 [1] is 4 µM. What is called kcat is the number of substrate molecules converted per active site and unit of time at saturation. With `Cc1nc2ccc(CN(C)c3ccc(C(=O)N[C@@H](CCC(=O)O)C(=O)O)s3)cc2c(=O)[nH]1` [Tomudex], at CPG2 [2], the “substrate of CPG2 (contacted with CPG2 in vitro)” value (“substrate of CPG2” for short) is given as “found to a substrate of CPG2”. Also, at CPG2 [2] (setting [5]), the Km came out at 7.8 µM and the kcat worked out at 24 s⁻¹. Also, the maximum tolerated dose in data set [3] was 6 mg/m^2. With `Nc1nc(=O)c2c([nH]1)NCC(CNc1ccc(C(=O)N[C@@H](CCC(=O)[O-])C(=O)[O-])cc1)N2C=O.[Ca+2]` (some centres unmarked) [leucovorin calcium, calcium salt of 5-formyl tetrahydrofolic acid], the “protection of bone marrow cells from MTX toxicity” value with bone marrow cells is given as “unable to protect bone marrow cells from toxicity”. Regarding `Cc1cc(C(=O)N[C@@H](CCC(=O)O)C(=O)O)sc1CC[C@@H]1CNc2nc(N)[nH]c(=O)c2C1` [AG2037], the “substrate of CPG2” value at CPG2 [2] (setting [6]) is given as “found to be a substrate of CPG2”. In the case of `Nc1nc2c(c(=O)[nH]1)N(C=O)C(CNc1ccc(C(=O)N[C@@H](CCC(=O)O)C(=O)O)cc1)CN2` (some centres unmarked) [5-formyl TIE, 5-formyl tetrahydrofolic acid], the Km at CPG2 [1] was 120 µM. In the case of `Cc1cn([C@H]2C[C@H](O)[C@@H](CO)O2)c(=O)[nH]c1=O` [thymidine], the “rescue of cellular toxicity associated with Tomudex” value in data set [4] is on record as “rescues the cellular toxicity associated with the Tomudex”.

With `Nc1nc2c(c(=O)[nH]1)C[C@@H](CCc1ccc(C(=O)N[C@@H](CCC(=O)O)C(=O)O)s1)CN2` [LY309887], the “substrate of CPG2” value on CPG2 [2] (setting [6]) is “found to be a substrate of CPG2”.
